According to patent US20260184742A1, “PEPTIDES” (CAROCELL BIO LIMITED, priority 2022, published 2026):
Like-named read-outs stand apart in the source and are kept apart here. Where no end group is shown, it is not given here.

Assays:
[1] = tested on: AD phenotype of skin biopsies (white space; Filaggrin, Involucrin, TSLP); assay: Atopic Dermatitis (AD) model in skin biopsies; assay type: cell-based; settings: for phenotype: donor ALC1373, 0.1 and 1.0 μg/ml, appeared an improvement above Clobetasol; for phenotype ("white space") analysis: 0.1, 1.0 and 2.5 μg/ml, not as apparent as Clobetasol
Procedure: The AD phenotype was assessed by measuring the intensity of the “white space” within the biopsies—this was increased from 20% in the media alone control to 80% on AD induction and reduced with Clobetasol (a topical corticosteroid) to 40%. All concentrations of the compound (JEL0305, JEL2603, JEL1103 or JEL0802) reduced the white space by between 50 and 60% as a similar trend to Clobetasol. Three further donors (ALC1373, ALC1366 and ALC1365) were used to develop atopic dermatitis after treatment with activated PBMC and a cytokine cocktail model and assessed phenotypically as well as by biomarker (Filaggrin, Involucrin and TSLP) by immunohistochemistry. For 2 donors (ALC1366 and ALC1365) Filaggrin and Involucrin were reduced compared non-AD induced skin biopsies in media alone. This is the expected response for AD induction. In the presence of the control drug Clobetasol the expression of Filaggrin and Involucrin was increased due to the drug reversing the AD phenotype. […] But this was not as apparent as Clobetasol more than likely due to the lipid formulation causing an upregulation of cytokines. […] Filaggrin results were inconclusive.

[2] = tested on: HLA (human leucocyte antigen) mismatched GvHD model; assay: Skimune skin explant assay, HLA mismatched GvHD model; assay type: cell-based; settings: LNP formulation of the compound, added throughout the mixed lymphocyte reaction and spiked into the skin explant
[3] = tested on: human TNFα in activated M1-macrophages (THP1-derived, LPS-activated); assay: In vitro anti-inflammatory activity (ELISA), TNFα as marker; assay type: cell-based; settings: compared with T0, 100 ng/mL
Procedure: The anti-inflammatory response of each free peptide and each peptide-polymer formulation was determined using TNFα as a marker. The anti-inflammatory bioactivity was assessed using enzyme-linked immunosorbent assay (ELISA) for quantitative detection of human TNFα in activated M1-macrophages. THP1 human monocytes were differentiated into macrophages (M0), which were then activated (overnight) with lipopolysaccharide (LPS) into M1-macrophages. LPS prompts the abundant production of many pro-inflammatory cytokines from macrophages, including TNF-α, which actively contributes to the inflammatory response. At the T0 and T4 (after 4 weeks storage at RT or 4° C.) time points, each JEL peptide and each JEL-polymer formulation was incubated in previously LPS-activated M1-macrophages for 24 h at 37° C. After incubation, supernatants were collected, centrifuged and stored at −80° C. in readiness for the enzyme-linked immunosorbent assay (ELISA). Each supernatant sample was defrosted and the ELISA assay undertaken according to the Invitrogen protocol. FIGS. 1-4 show the concentrations of human TNFα detected by ELISA after incubation with each free and polymer loaded peptide at a concentration of 100 ng/mL.

[4] = tested on: pro-inflammatory cytokines including Th1 (IFNγ, TNFα, IL-1β) and Th2 cytokines (IL-13 and IL-4)
[5] = tested on: pro-inflammatory cytokines including Th1 (IFNγ, TNFα, IL-1β) and Th2 cytokines (IL-13 and IL-4); assay: Cytokine levels from the Skimune assays; settings: current concentrations and lipid formulation; GvHD type assays
[6] = donors ALC1366 and ALC1365, compound at 0.1, 1.0 and 2.5 μg/ml
[7] = after 4 weeks storage at room temperature (RT)

Row | pro-inflammatory cytokines [5] | Compound | Graft versus Host reaction grade [2] | inhibition of the Graft versus Host response [2] | phenotype [1] | phenotype ("white space") analysis ([1]; donors ALC1366 and ALC1365) | anti-inflammatory activity (human TNFα detected by ELISA) after storage ([3]; after 4 weeks storage at 4° C.) | anti-inflammatory activity (human TNFα detected by ELISA) after storage [3, 7] | pro-inflammatory cytokines [4] | further results
1 |  | C[C@H]1C[C@H]2[C@@H]3CCC4=CC(=O)C=C[C@]4(C)[C@@]3(F)[C@@H](O)C[C@]2(C)[C@@]1(O)C(=O)CCl [Clobetasol, reference compound] |  |  |  |  |  |  |  | intensity of the "white space" within the biopsies ([1]; 20% in media alone control, 80% on AD induction): 40%; Filaggrin expression by immunohistochemistry [1, 6]: increased; Involucrin expression by immunohistochemistry [1, 6]: increased
2 |  | HKSRARLIFHEGPCGVRR [JEL1103] | Grade III | no inhibition | some improvement of the phenotype | improved and reversal of damage | maintained | maintained | significant increases | 
3 | significant increases | SRALLIFQKI [JEL0802, Ser-Arg-Ala-Leu-Leu-Ile-Phe-Gln-Lys-Ile] |  |  |  |  |  |  |  | 
4 |  | SRALKIFLATRKDRSPWH [JEL2603] | Grade III | no inhibition | some improvement of the phenotype | improved and reversal of damage | some diminution of anti-inflammatory activity | activity is lost | significant increases | 
5 | significant increases | VSRATRIFKLSQLRGQCA [JEL0305, Val-Ser-Arg-Ala-Thr-Arg-Ile-Phe-Lys-Leu-Ser-Gln-Leu-Arg-Gly-Gln-Cys-Ala] |  |  |  |  |  |  |  | 
